Data taken from patent US20180042982A1, “Methods for Treating HCV” (priority 2013, published 2018).

Legend:
[1] = system: resistance-associated variants in GT 1a (H77) replicon; experiment: Activity against resistance-associated variants, GT 1a; assay type: cell-based, Hepatitis C virus
Excerpt: (§1) However, these variants had in vitro replication capacities of only 1.5% and 9.2% that of their corresponding wild-type replicons.

[2] = system: replicon containing GT3a NS3 protease; experiment: Resistant colony selection in replicon containing GT3a NS3 protease; assay type: cell-based, Hepatitis C virus; settings: concentrations ≧100-fold over its EC50 value
Excerpt: as §1

HCV replicon Genotype 3a = experiment: HCV subgenomic stable replicon cell culture assay, genotype 3a; assay type: cell-based; settings: Hepatitis C virus, read-out: Mean EC50, nM, ± Std. Dev.
Excerpt: as §1

HCV = experiment: Anti-HCV efficacy of Compound 1 at different doses; design: species or system Hepatitis C virus; settings: 200-300 mg Compound 1 compared with 400 mg Compound 1
[3] = system: resistance-associated variants in GT 1b (Con-1) replicon; experiment: Activity against resistance-associated variants, GT 1b; assay type: cell-based, Hepatitis C virus
Excerpt: as §1

## CC(C)(C)[C@@H]1NC(=O)O[C@@H]2CCC[C@H]2OC/C=C/C(F)(F)c2nc3ccccc3nc2O[C@@H]2C[C@@H](C(=O)N[C@]3(C(=O)NS(=O)(=O)C4(C)CC4)C[C@H]3C(F)F)N(C2)C1=O [Compound 1]
[1]; GT1a variants conferring resistance to other HCV protease inhibitors
  activity against common variants at NS3 amino acid positions 155 and 168: retained its activity
[1]; M28T, M28V, Q30D, Q30R, Y93C, Y93H, Y93N, L31V+Y93H, C316Y, M414T, Y448C, Y448H, S556G and S559G in GT 1a
  activity against NS5A inhibitor and NS5B inhibitor resistance-associated variants: potent activity
[1]; V36M, R155K, D168A and D168V in GT 1a (H77)
  inhibitory activity against NS3 resistance-associated variants: nearly equivalent to that against wild-type HCV replicon
[2]
  resistant colony selection: selected very few colonies
HCV replicon Genotype 3a
  EC50: 1.6 ± 0.49 nM
HCV
  anti-HCV efficacy of 200-300 mg versus 400 mg: comparable anti-HCV efficacy
[3]; GT1b variants conferring resistance to other HCV protease inhibitors
  activity against common variants at NS3 amino acid positions 155 and 168: retained its activity
[3]; L28T, Y93H, S282T, C316Y, Y448H and S556G in GT 1b
  activity against NS5A inhibitor and NS5B inhibitor resistance-associated variants: potent activity
[3]; T54A, R155K, D168V and V170A in GT 1b (Con-1)
  inhibitory activity against NS3 resistance-associated variants: nearly equivalent to that against wild-type HCV replicon
